{"source": "ChEMBL document CHEMBL3853341", "about": "“Nuclear magnetic resonance studies reveal stabilization of parallel G-quadruplex DNA [d(T2G4T)]4 upon binding to protoberberine alkaloid coralyne” (Bioorg Med Chem Lett, 2016)", "key": {"[1]": {"experiment": "Binding affinity to [d(T2AG3T)]4 G-quadruplex DNA (unknown origin) containing human telomeric repeat assessed as increase in melting temperature by NMR spectroscopic analysis"}, "[2]": {"experiment": "Binding affinity to [d(T2G4T)]4 G-quadruplex DNA (unknown origin) assessed as broadening of G3NH signal by measuring upfield shift at ligand:DNA molar ratio of 2 by 1D 1H NMR method"}, "[3]": {"experiment": "Binding affinity to [d(T2G4T)]4 G-quadruplex DNA (unknown origin) assessed as broadening of T7CH3 signal by measuring downfield shift at ligand:DNA molar ratio of 2 by 1D 1H NMR method"}, "[4]": {"experiment": "Binding affinity to [d(T2G4T)]4 G-quadruplex DNA (unknown origin) assessed as formation of 3'-flanking guanine at ligand:DNA molar ratio of 2 by 2D 1H-1H NOESY NMR spectroscopy"}, "[5]": {"experiment": "Binding affinity to deoxy(T2G4T)]4 G-quadruplex DNA (unknown origin) assessed as formation of negative induced CD band at 25 uM by […]"}, "[6]": {"experiment": "Binding affinity to [d(T2G4T)]4 G-quadruplex DNA (unknown origin) assessed as upfield shift in compound 15OCH3 signal at ligand:DNA molar ratio of 2 by 1D 1H NMR method"}, "[7]": {"experiment": "Binding affinity to [d(T2G4T)]4 G-quadruplex DNA (unknown origin) assessed as change in intensity of positive band at 264 nanometer by circular dichroism method"}, "[8]": {"experiment": "Binding affinity to [d(T2G4T)]4 G-quadruplex DNA (unknown origin) assessed as upfield shift in compound 5OCH3 signal at ligand:DNA molar ratio of 2 by 1D 1H NMR method"}, "[9]": {"experiment": "Binding affinity to [d(T2G4T)]4 G-quadruplex DNA (unknown origin) assessed as downfield shift in T2pG3 signal at ligand:DNA molar ratio of 0.25:1 to 2:1 by 1D 31P NMR method"}, "[10]": {"experiment": "Binding affinity to [d(T2G4T)]4 G-quadruplex DNA (unknown origin) assessed as upfield shift in G5pG6 signal at ligand:DNA molar ratio of 0.25:1 to 2:1 by 1D 31P NMR method"}, "[11]": {"experiment": "Binding affinity to [d(T2G4T)]4 G-quadruplex DNA (unknown origin) assessed as diffusion coefficient of H1/H16 proton signal at ligand:DNA molar ratio of 2 by NMR DOSY method (reference value: 5.08 10^-10m2/sec)"}, "[12]": {"experiment": "Binding affinity to [d(T2G4T)]4 G-quadruplex DNA (unknown origin) assessed as broadening of G4NH signal by measuring upfield shift at ligand:DNA molar ratio of 2 by 1D 1H NMR method"}, "[13]": {"experiment": "Binding affinity to [d(T2G4T)]4 G-quadruplex DNA (unknown origin) assessed as upfield shift in G4pG5 signal at ligand:DNA molar ratio of 0.25:1 to 2:1 by 1D 31P NMR method"}, "[14]": {"experiment": "Binding affinity to [d(T2G4T)]4 G-quadruplex DNA (unknown origin) assessed as upfield shift in compound 1OCH3 signal at ligand:DNA molar ratio of 2 by 1D 1H NMR method"}, "[15]": {"experiment": "Binding affinity to [d(T2G4T)]4 G-quadruplex DNA (unknown origin) assessed as broadening of T2CH3 signal by measuring downfield shift at ligand:DNA molar ratio of 2 by 1D 1H NMR method"}, "[16]": {"experiment": "Binding affinity to [d(T2G4T)]4 G-quadruplex DNA (unknown origin) assessed as broadening of G6NH signal by measuring upfield shift at ligand:DNA molar ratio of 2 by 1D 1H NMR method"}, "[17]": {"experiment": "Binding affinity to [d(T2G4T)]4 G-quadruplex DNA (unknown origin) assessed as upfield shift in compound 16OCH3 signal at ligand:DNA molar ratio of 2 by 1D 1H NMR method"}, "[18]": {"experiment": "Binding affinity to [d(T2G4T)]4 G-quadruplex DNA (unknown origin) assessed as downfield shift in G6pT7 signal at ligand:DNA molar ratio of 0.25:1 to 2:1 by 1D 31P NMR method"}, "[19]": {"experiment": "Binding affinity to [d(T2G4T)]4 G-quadruplex DNA (unknown origin) assessed as change in intensity of negative band at 242 nanometer by circular dichroism method"}, "[20]": {"experiment": "Binding affinity to [d(T2G4T)]4 G-quadruplex DNA (unknown origin) assessed as broadening of G5NH signal by measuring upfield shift at ligand:DNA molar ratio of 2 by 1D 1H NMR method"}, "[21]": {"experiment": "Binding affinity to [d(T2G4T)]4 G-quadruplex DNA (unknown origin) assessed as diffusion coefficient of G3H8 proton signal at ligand:DNA molar ratio of 2 by NMR DOSY method"}, "[22]": {"experiment": "Binding affinity to deoxy(T2G4T)]4 G-quadruplex DNA (unknown origin) assessed as G3NH/G6NH signal by measuring melting temperature by 1H NMR spectroscopy"}, "[23]": {"experiment": "Binding affinity to [d(T2G4T)]4 G-quadruplex DNA (unknown origin) assessed as broadening of T7H6 signal by measuring downfield shift at ligand:DNA molar ratio of 2 by 1D 1H NMR method"}}, "note": "Activity calls are given as the source filed them. The rule behind the calls is not given here."}
{"smiles": "O=c1c(O)c(-c2ccc(O)c(O)c2)oc2cc(O)cc(O)c12", "values": [{"measurement": "ΔTm", "setting": "[1]", "result": 20, "unit": "°C"}]}
{"smiles": "Cc1cc2c3c([n+](C)c4ccc(F)cc4c3c1)-c1cc(F)ccc1N2C", "values": [{"measurement": "ΔTm", "setting": "[1]", "result": 20, "unit": "°C"}]}
{"smiles": "COc1cc2cc3c4cc(OC)c(OC)cc4cc[n+]3c(C)c2cc1OC", "values": [{"measurement": "Activity", "setting": "[2]", "result": 0.54, "unit": "ppm"}, {"measurement": "Activity", "setting": "[3]", "result": 0.22, "unit": "ppm"}, {"measurement": "Activity", "setting": "[4]", "result": "Active"}, {"measurement": "Activity", "setting": "[5]", "result": "Active"}, {"measurement": "Activity", "setting": "[6]", "result": 0.46, "unit": "ppm"}, {"measurement": "Activity", "setting": "[7]", "result": "Active"}, {"measurement": "Activity", "setting": "[8]", "result": 0.72, "unit": "ppm"}, {"measurement": "Activity", "setting": "[9]", "result": 0.28, "unit": "ppm"}, {"measurement": "Activity", "setting": "[10]", "result": 0.12, "unit": "ppm"}, {"measurement": "D", "setting": "[11]", "result": 3.31, "unit": "×10⁻¹⁰ m2/s"}, {"measurement": "Activity", "setting": "[12]", "result": 0.37, "unit": "ppm"}, {"measurement": "Activity", "setting": "[13]", "result": 0.12, "unit": "ppm"}, {"measurement": "Activity", "setting": "[14]", "result": 0.49, "unit": "ppm"}, {"measurement": "Activity", "setting": "[15]", "result": 0.17, "unit": "ppm"}, {"measurement": "Activity", "setting": "[16]", "result": 0.8, "unit": "ppm"}, {"measurement": "Activity", "setting": "[17]", "result": 0.61, "unit": "ppm"}, {"measurement": "Activity", "setting": "[18]", "result": 0.27, "unit": "ppm"}, {"measurement": "Activity", "setting": "[19]", "result": "Active"}, {"measurement": "Activity", "setting": "[20]", "result": 0.38, "unit": "ppm"}, {"measurement": "D", "setting": "[21]", "result": 3.26, "unit": "×10⁻¹⁰ m2/s"}, {"measurement": "ΔTm", "setting": "[22]", "result": "> 20", "unit": "°C"}, {"measurement": "Activity", "setting": "[23]", "result": 0.33, "unit": "ppm"}]}
